Experimental data: patent publication US8859284B2, “Delivery of nanoparticles to neurons” (The United States of America, as represented by the …, priority 2009, dated 2014)
Square brackets hold non-standard residues; d marks the D form. Ends that are not written are not given here. * marks the point of attachment. Palmitoyl = CCCCCCCCCCCCCCCC(=O)*; Dapaa = not defined here; Dapdi = not defined here; Dap = NC[C@H](N)C(=O)O; bi = not defined here; Aib = CC(C)(N)C(=O)O

Tested on: COS-1 cells
Test: Cellular uptake and endosomal escape of QD-peptide assemblies, fluorescence microscopy
Type: cell-based, African green monkey
Conditions: COS1 cells; for % Escape in cells with uptake: QD-peptide assemblies; for Overall uptake/escape: uptake: first word of the cell; for Overall uptake/escape: escape: second word of the cell
Procedure: Merged images were generated using Adobe PhotoShop.
The peptide assemblies were incubated with COS-1 cells for 1 hr, removed, and the cells were subsequently cultured for 24 hr prior to fixation. An AlexaFluor 647-transferrin (Tf) conjugate was included during the incubation to label the vesicles of the endocytic pathway. Cell nuclei were stained with DAPI.

With “WGDapVRRRIRR(P)9GG(H)6 (WG[Dap]VRRRIRRPPPPPPPPPGGHHHHHH) [JB585]” the “% Escape in cells with uptake” value was 25%, the “Overall uptake/escape: uptake” value was “Low” and the “Overall uptake/escape: escape” value was “low”.

In the case of “WGDapa(P)9GG(H)6 (WG[Dap](Palmitoyl)PPPPPPPPPGGHHHHHH) [JB578]”, the “% Escape in cells with uptake” value is reported as 46%, the “Overall uptake/escape: uptake” value is reported as “Low” and the “Overall uptake/escape: escape” value is reported as “moderate”.

With “WGDapaGDapaVKIKK(P)9GG(H)6 (WG[Dap](Palmitoyl)G[Dap](Palmitoyl)VKIKKPPPPPPPPPGGHHHHHH) [JB580]” the “% Escape in cells with uptake” value was 92%, the “Overall uptake/escape: uptake” value was “Low” and the “Overall uptake/escape: escape” value was “high”.

For WGDapaRRRIRR(P)9GGK [JB588], the “% Escape in cells with uptake” value was 85%, the “Overall uptake/escape: uptake” value was “High” and the “Overall uptake/escape: escape” value was “high”.

With “WGDapaVKIKK(Aib)9GG(H)6 (WG[Dap](Palmitoyl)VKIKK[Aib][Aib][Aib][Aib][Aib][Aib][Aib][Aib][Aib]GGHHHHHH) [JB747]” the “% Escape in cells with uptake” value was 58%, the “Overall uptake/escape: uptake” value was “High” and the “Overall uptake/escape: escape” value was “moderate”.

In the case of “WGDapaVKIKK(P)4GG(H)6 (WG[Dap](Palmitoyl)VKIKKPPPPGGHHHHHH) [JB582]”, the “Overall uptake/escape: uptake” value is reported as “None” and the “Overall uptake/escape: escape” value is reported as “none”.

With WGDapaVKIKK(P)9GGKb [JB728] the “% Escape in cells with uptake” value was 93%, the “Overall uptake/escape: uptake” value was “High” and the “Overall uptake/escape: escape” value was “high”.

“WGDapaVKIKK(P)12GG(H)6 (WG[Dap](Palmitoyl)VKIKKPPPPPPPPPPPPGGHHHHHH) [JB865]” was tested, and the “% Escape in cells with uptake” value was 68%, the “Overall uptake/escape: uptake” value was “High” and the “Overall uptake/escape: escape” value was “moderate”.

In the case of “WGDapaVKIKK(P)15GG(H)6 (WG[Dap](Palmitoyl)VKIKKPPPPPPPPPPPPPPPGGHHHHHH) [JB864]”, the “% Escape in cells with uptake” value is reported as 85%, the “Overall uptake/escape: uptake” value is reported as “High” and the “Overall uptake/escape: escape” value is reported as “high”.

“WGDapaVRL(P)3VRL(P)3VRL(P)3GG(H)6 (WG[Dap](Palmitoyl)VRLPPPVRLPPPVRLPPPGGHHHHHH) [JB869]” was tested, and the “% Escape in cells with uptake” value was 55%, the “Overall uptake/escape: uptake” value was “High” and the “Overall uptake/escape: escape” value was “moderate”.

For “WGDapaVRRRIRR(P)9GG(H)6 (WG[Dap](Palmitoyl)VRRRIRRPPPPPPPPPGGHHHHHH) [JB583]”, the “% Escape in cells with uptake” value was 41%, the “Overall uptake/escape: uptake” value was “Low” and the “Overall uptake/escape: escape” value was “moderate”.

In the case of “WGDapaaVKIKK(P)9GG(H)6 (WG[Dapaa]VKIKKPPPPPPPPPGGHHHHHH; reading uncertain) [JB866]”, the “% Escape in cells with uptake” value is reported as 11%, the “Overall uptake/escape: uptake” value is reported as “Moderate” and the “Overall uptake/escape: escape” value is reported as “low”.

For “WGDapdiVKIKK(P)9GG(H)6 (WG[Dapdi]VKIKKPPPPPPPPPGGHHHHHH; reading uncertain) [JB641]”, the “% Escape in cells with uptake” value was 88%, the “Overall uptake/escape: uptake” value was “Moderate” and the “Overall uptake/escape: escape” value was “high”.

For WGDapeVKIKK(P)9GG(H)6 [JB729], the “% Escape in cells with uptake” value was 84%, the “Overall uptake/escape: uptake” value was “High” and the “Overall uptake/escape: escape” value was “high”.

In the case of WGDapfVKIKK(P)9GG(H)6 [SI09160], the “% Escape in cells with uptake” value is reported as 96%, the “Overall uptake/escape: uptake” value is reported as “Moderate” and the “Overall uptake/escape: escape” value is reported as “high”.

With WdGDapdiVKIKK(P)9GG(H)6 [JB621] the “% Escape in cells with uptake” value was 90%, the “Overall uptake/escape: uptake” value was “Low” and the “Overall uptake/escape: escape” value was “high”.

“biKWGSAibAAALGG(R)10 (bi-KWGS[Aib]AAALGGRRRRRRRRRR; reading uncertain) [JB722, Dye labeled cell penetrating peptide, reference compound]” was tested, and the “% Escape in cells with uptake” value was 1%, the “Overall uptake/escape: uptake” value was “Low” and the “Overall uptake/escape: escape” value was “low”.
